Measured values: PubChem BioAssay (NCI)
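Following 48 hours of exposure in 96-well plates, responses at five concentrations were used to interpolate endpoints linearly. TGI: concentration producing complete growth inhibition.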

Experiments:
Test in all cases: DTP human tumour cell line panel, 48 h
OVCAR-5 ovarian = system: OVCAR-5 ovarian
786-0 renal = system: 786-0 renal
SNB-75 CNS = system: SNB-75 CNS
HOP-18 NSCLC = system: HOP-18 NSCLC
SNB-19 CNS = system: SNB-19 CNS
MALME-3M melanoma = system: MALME-3M melanoma
ACHN renal = system: ACHN renal
HL-60(TB) leukemia = system: HL-60(TB) leukemia
RPMI-8226 leukemia = system: RPMI-8226 leukemia
U251 CNS = system: U251 CNS
SK-OV-3 ovarian = system: SK-OV-3 ovarian
HCT-116 colon = system: HCT-116 colon
UACC-257 melanoma = system: UACC-257 melanoma
LOX IMVI melanoma = system: LOX IMVI melanoma
DLD-1 colon = system: DLD-1 colon
EKVX NSCLC = system: EKVX NSCLC
OVCAR-3 ovarian = system: OVCAR-3 ovarian
CCRF-CEM leukemia = system: CCRF-CEM leukemia
DMS 114 small cell lung = system: DMS 114 small cell lung
RXF-631 renal = system: RXF-631 renal
KM20L2 colon = system: KM20L2 colon
IGROV1 ovarian = system: IGROV1 ovarian
HOP-92 NSCLC = system: HOP-92 NSCLC
SF-539 CNS = system: SF-539 CNS
NCI-H23 lung = system: NCI-H23 lung
HT29 colon = system: HT29 colon
OVCAR-8 ovarian = system: OVCAR-8 ovarian
KM12 colon = system: KM12 colon
OVCAR-4 ovarian = system: OVCAR-4 ovarian
SNB-78 CNS = system: SNB-78 CNS
SK-MEL-5 melanoma = system: SK-MEL-5 melanoma
A549 NSCLC = system: A549 NSCLC
HOP-62 NSCLC = system: HOP-62 NSCLC
TK-10 renal = system: TK-10 renal
UACC-62 melanoma = system: UACC-62 melanoma
NCI-H226 lung = system: NCI-H226 lung
LXFL 529 NSCLC = system: LXFL 529 NSCLC
A498 renal = system: A498 renal
SW-620 colon = system: SW-620 colon
HCC-2998 colon = system: HCC-2998 colon
NCI-H460 lung = system: NCI-H460 lung
M14 melanoma = system: M14 melanoma
M19-MEL melanoma = system: M19-MEL melanoma
RXF 393 renal = system: RXF 393 renal
HCT-15 colon = system: HCT-15 colon
SF-268 CNS = system: SF-268 CNS
XF 498 CNS = system: XF 498 CNS
SF-295 CNS = system: SF-295 CNS
SN12C renal = system: SN12C renal
CAKI-1 renal = system: CAKI-1 renal
UO-31 renal = system: UO-31 renal
K-562 leukemia = system: K-562 leukemia
SK-MEL-28 melanoma = system: SK-MEL-28 melanoma
COLO 205 colon = system: COLO 205 colon
NCI-H522 lung = system: NCI-H522 lung
SR leukemia = system: SR leukemia
SK-MEL-2 melanoma = system: SK-MEL-2 melanoma
MOLT-4 leukemia = system: MOLT-4 leukemia
DMS 273 small cell lung = system: DMS 273 small cell lung

COc1ccc(NC(=O)/C(Cc2nc3ccccc3[nH]c2=O)=N\O)c(OC)c1
TGI (OVCAR-5 ovarian): > 100 µM
TGI (786-0 renal): > 100 µM
TGI (SNB-75 CNS): > 100 µM
TGI (HOP-18 NSCLC): > 100 µM
TGI (SNB-19 CNS): > 100 µM
TGI (MALME-3M melanoma): > 100 µM
TGI (ACHN renal): > 100 µM
TGI (HL-60(TB) leukemia): > 100 µM
TGI (RPMI-8226 leukemia): > 100 µM
TGI (U251 CNS): > 100 µM
TGI (SK-OV-3 ovarian): > 100 µM
TGI (HCT-116 colon): > 100 µM
TGI (UACC-257 melanoma): > 100 µM
TGI (LOX IMVI melanoma): > 100 µM
TGI (DLD-1 colon): > 100 µM
TGI (EKVX NSCLC): > 100 µM
TGI (OVCAR-3 ovarian): > 100 µM
TGI (CCRF-CEM leukemia): > 100 µM
TGI (DMS 114 small cell lung): > 100 µM
TGI (RXF-631 renal): > 100 µM
TGI (KM20L2 colon): > 100 µM
TGI (IGROV1 ovarian): > 100 µM
TGI (HOP-92 NSCLC): > 100 µM
TGI (SF-539 CNS): > 100 µM
TGI (NCI-H23 lung): > 100 µM
TGI (HT29 colon): > 100 µM
TGI (OVCAR-8 ovarian): > 100 µM
TGI (KM12 colon): > 100 µM
TGI (OVCAR-4 ovarian): > 100 µM
TGI (SNB-78 CNS): > 100 µM
TGI (SK-MEL-5 melanoma): > 100 µM
TGI (A549 NSCLC): > 100 µM
TGI (HOP-62 NSCLC): > 100 µM
TGI (TK-10 renal): > 100 µM
TGI (UACC-62 melanoma): > 100 µM
TGI (NCI-H226 lung): > 100 µM
TGI (LXFL 529 NSCLC): > 100 µM
TGI (A498 renal): > 100 µM
TGI (SW-620 colon): > 100 µM
TGI (HCC-2998 colon): > 100 µM
TGI (NCI-H460 lung): > 100 µM
TGI (M14 melanoma): > 100 µM
TGI (M19-MEL melanoma): > 100 µM
TGI (RXF 393 renal): > 100 µM
TGI (HCT-15 colon): > 100 µM
TGI (SF-268 CNS): > 100 µM
TGI (XF 498 CNS): > 100 µM
TGI (SF-295 CNS): > 100 µM
TGI (SN12C renal): > 100 µM
TGI (CAKI-1 renal): > 100 µM
TGI (UO-31 renal): > 100 µM
TGI (K-562 leukemia): > 100 µM
TGI (SK-MEL-28 melanoma): > 100 µM
TGI (COLO 205 colon): > 100 µM
TGI (NCI-H522 lung): > 100 µM
TGI (SR leukemia): > 100 µM

[C-]#[N+][C@@H]1C2[C@H](CC[C@@]1(C)O)C(=C)CC[C@@H]2[C@@]1(C)CC[C@H](Cl)C(C)(C)O1 (stereo partly drawn)
TGI (786-0 renal): 23.8 µM
TGI (SNB-75 CNS): > 100 µM
TGI (HOP-18 NSCLC): 21.9 µM
TGI (SNB-19 CNS): > 100 µM
TGI (MALME-3M melanoma): 48.1 µM
TGI (ACHN renal): 33.2 µM
TGI (HL-60(TB) leukemia): 5.66 µM
TGI (RPMI-8226 leukemia): 20.9 µM
TGI (U251 CNS): 36.3 µM
TGI (SK-OV-3 ovarian): 82.6 µM
TGI (HCT-116 colon): 12.8 µM
TGI (UACC-257 melanoma): 45.4 µM
TGI (LOX IMVI melanoma): 16.8 µM
TGI (DLD-1 colon): 50.8 µM
TGI (EKVX NSCLC): 60.2 µM
TGI (OVCAR-3 ovarian): 9.97 µM
TGI (CCRF-CEM leukemia): 21.8 µM
TGI (DMS 114 small cell lung): 9.08 µM
TGI (RXF-631 renal): > 100 µM
TGI (KM20L2 colon): > 100 µM
TGI (IGROV1 ovarian): 41.7 µM
TGI (SF-539 CNS): 39.4 µM
TGI (NCI-H23 lung): 53.4 µM
TGI (HT29 colon): 29.8 µM
TGI (OVCAR-8 ovarian): 21 µM
TGI (KM12 colon): 25 µM
TGI (OVCAR-4 ovarian): 33.7 µM
TGI (SK-MEL-5 melanoma): 15.7 µM
TGI (A549 NSCLC): 77.6 µM
TGI (TK-10 renal): 84.2 µM
TGI (UACC-62 melanoma): 20.1 µM
TGI (NCI-H226 lung): 20.8 µM
TGI (LXFL 529 NSCLC): > 100 µM
TGI (A498 renal): 41.7 µM
TGI (SW-620 colon): 31.1 µM
TGI (HCC-2998 colon): 36.7 µM
TGI (NCI-H460 lung): 52.6 µM
TGI (M14 melanoma): 12.6 µM
TGI (M19-MEL melanoma): 21.9 µM
TGI (RXF 393 renal): 35.4 µM
TGI (HCT-15 colon): 18 µM
TGI (SF-268 CNS): > 100 µM
TGI (XF 498 CNS): 26.4 µM
TGI (SF-295 CNS): 28.3 µM
TGI (SN12C renal): 26.3 µM
TGI (CAKI-1 renal): 27.7 µM
TGI (UO-31 renal): 7.17 µM
TGI (K-562 leukemia): 13.5 µM
TGI (SK-MEL-28 melanoma): > 100 µM
TGI (COLO 205 colon): 12.8 µM
TGI (NCI-H522 lung): 22.4 µM
TGI (SK-MEL-2 melanoma): 27.8 µM

O=C1C2C(C(=O)N1c1ccccc1)C1(Br)c3ccccc3C2(Br)C2C(=O)N(c3ccccc3)C(=O)C21 (stereo not drawn)
TGI (OVCAR-5 ovarian): > 31.6 µM
TGI (786-0 renal): > 31.6 µM
TGI (SNB-75 CNS): > 31.6 µM
TGI (HOP-18 NSCLC): > 31.6 µM
TGI (SNB-19 CNS): > 31.6 µM
TGI (MALME-3M melanoma): > 31.6 µM
TGI (ACHN renal): > 31.6 µM
TGI (HL-60(TB) leukemia): > 31.6 µM
TGI (RPMI-8226 leukemia): > 31.6 µM
TGI (U251 CNS): > 31.6 µM
TGI (SK-OV-3 ovarian): > 100 µM
TGI (HCT-116 colon): > 31.6 µM
TGI (UACC-257 melanoma): > 31.6 µM
TGI (LOX IMVI melanoma): > 31.6 µM
TGI (DLD-1 colon): > 31.6 µM
TGI (EKVX NSCLC): > 31.6 µM
TGI (OVCAR-3 ovarian): > 31.6 µM
TGI (CCRF-CEM leukemia): > 31.6 µM
TGI (DMS 114 small cell lung): > 31.6 µM
TGI (RXF-631 renal): > 100 µM
TGI (MOLT-4 leukemia): > 31.6 µM
TGI (KM20L2 colon): > 31.6 µM
TGI (IGROV1 ovarian): > 31.6 µM
TGI (SF-539 CNS): > 31.6 µM
TGI (NCI-H23 lung): > 31.6 µM
TGI (HT29 colon): > 31.6 µM
TGI (OVCAR-8 ovarian): > 100 µM
TGI (KM12 colon): > 31.6 µM
TGI (OVCAR-4 ovarian): > 100 µM
TGI (SNB-78 CNS): > 31.6 µM
TGI (SK-MEL-5 melanoma): > 31.6 µM
TGI (DMS 273 small cell lung): > 31.6 µM
TGI (A549 NSCLC): > 31.6 µM
TGI (TK-10 renal): > 31.6 µM
TGI (UACC-62 melanoma): > 31.6 µM
TGI (NCI-H226 lung): > 31.6 µM
TGI (LXFL 529 NSCLC): > 31.6 µM
TGI (A498 renal): > 100 µM
TGI (SW-620 colon): > 31.6 µM
TGI (HCC-2998 colon): > 31.6 µM
TGI (NCI-H460 lung): > 31.6 µM
TGI (M14 melanoma): > 31.6 µM
TGI (M19-MEL melanoma): > 31.6 µM
TGI (RXF 393 renal): 27.1 µM
TGI (HCT-15 colon): > 31.6 µM
TGI (SF-268 CNS): > 31.6 µM
TGI (XF 498 CNS): > 100 µM
TGI (SF-295 CNS): > 100 µM
TGI (SN12C renal): > 31.6 µM
TGI (CAKI-1 renal): > 100 µM
TGI (UO-31 renal): > 31.6 µM
TGI (K-562 leukemia): > 31.6 µM
TGI (SK-MEL-28 melanoma): > 31.6 µM
TGI (COLO 205 colon): > 31.6 µM
TGI (SK-MEL-2 melanoma): > 31.6 µM
